Data reported in PubChem BioAssay AID2060894 (Molecular Pharmacology Branch, DTP, NCI, 2025).
Several values for one entry are separate records, joined by “and”; a condition that tells them apart may be missing. Equal values may be shown once.

Test system: K12877-001-R-J1-PDC complex spheroid viability
Assay: Anticancer human tumor K12877-001-R-J1-PDC patient-derived lung adenocarcinoma cell line growth inhibition [RAS]
Settings: for viability, T/C: stronger effect = lower value
In short: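 Agents were tested in combination matrices in half-log decrements from a top concentration at or near clinical Cmax (10 microM if undetermined). Targets were multi-cell spheroids of tumour lines plus HUVEC and MSC stromal cells.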

[1] = curve of first compound, second compound 0.00316 µM
[2] = curve of first compound, second compound 0.01 µM
[3] = curve of first compound, second compound 0.0316 µM
[4] = curve of first compound, second compound 0.1 µM
[5] = curve of first compound, second compound 0.316 µM
[6] = curve of first compound, second compound 1 µM
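Also: spheroids exposed to agents for one week before readout.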
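For viability, T/C in this document: tumour cells co-cultured with HUVEC and mesenchymal stem cells in spheroids.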

CC1(C)CCC(Nc2ncc(C(F)(F)F)c(-c3c[nH]c4c(P(C)(C)=O)c(C#N)ccc34)n2)CN1 (centres undefined) + C=CC(=O)N1CCN(c2nc(OCC3CCCN3C)nc3c(F)c(-c4nc(N)cc(C)c4C(F)(F)F)c(Cl)cc23)C(C)C1 gave an IC50 [1] of 0.0325 µM, an IC50 [2] of 0.076 µM and an IC50 [3] of 0.0466 µM. For the same compound, the IC50 [4] was 0.0385 µM, the IC50 [5] was 0.059 µM and the IC50 [6] was 0.098 µM. For the same compound, the viability, T/C (second compound 0.00316 µM, first compound 0.000949 µM) was 107%, the viability, T/C (second compound 0.00316 µM, first compound 0.003 µM) was 85.1% and the viability, T/C (second compound 0.00316 µM, first compound 0.00949 µM) was 74.4%. For the same compound, the viability, T/C (second compound 0.00316 µM, first compound 0.03 µM) was 53.2%, the viability, T/C (second compound 0.00316 µM, first compound 0.0949 µM) was 30.1% and the viability, T/C (second compound 0.00316 µM, first compound 0.3 µM) was 36.3%. The viability, T/C (second compound 0.01 µM, first compound 0.000949 µM) was 92.3%, the viability, T/C (second compound 0.01 µM, first compound 0.003 µM) was 78.3% and the viability, T/C (second compound 0.01 µM, first compound 0.00949 µM) was 62.5%. The viability, T/C (second compound 0.01 µM, first compound 0.03 µM) was 59.1%, the viability, T/C (second compound 0.01 µM, first compound 0.0949 µM) was 47.4% and the viability, T/C (second compound 0.01 µM, first compound 0.3 µM) was 43.4%. It also gave a viability, T/C (second compound 0.0316 µM, first compound 0.000949 µM) of 87%, a viability, T/C (second compound 0.0316 µM, first compound 0.003 µM) of 73.6% and a viability, T/C (second compound 0.0316 µM, first compound 0.00949 µM) of 63.9%. For the same compound, the viability, T/C (second compound 0.0316 µM, first compound 0.03 µM) was 57.2%, the viability, T/C (second compound 0.0316 µM, first compound 0.0949 µM) was 42% and the viability, T/C (second compound 0.0316 µM, first compound 0.3 µM) was 33.1%. For the same compound, the viability, T/C (second compound 0.1 µM, first compound 0.000949 µM) was 80.1%, the viability, T/C (second compound 0.1 µM, first compound 0.003 µM) was 76.8% and the viability, T/C (second compound 0.1 µM, first compound 0.00949 µM) was 63.8%. It also gave a viability, T/C (second compound 0.1 µM, first compound 0.03 µM) of 52.6%, a viability, T/C (second compound 0.1 µM, first compound 0.0949 µM) of 41.6% and a viability, T/C (second compound 0.1 µM, first compound 0.3 µM) of 32.9%. For the same compound, the viability, T/C (second compound 0.316 µM, first compound 0.000949 µM) was 87.7%, the viability, T/C (second compound 0.316 µM, first compound 0.003 µM) was 79.6% and the viability, T/C (second compound 0.316 µM, first compound 0.00949 µM) was 66.2%. For the same compound, the viability, T/C (second compound 0.316 µM, first compound 0.03 µM) was 54.8%, the viability, T/C (second compound 0.316 µM, first compound 0.0949 µM) was 48.1% and the viability, T/C (second compound 0.316 µM, first compound 0.3 µM) was 35.1%. The viability, T/C (second compound 1 µM, first compound 0.000949 µM) was 85.6%, the viability, T/C (second compound 1 µM, first compound 0.003 µM) was 77.6% and the viability, T/C (second compound 1 µM, first compound 0.00949 µM) was 70.5%. It also gave a viability, T/C (second compound 1 µM, first compound 0.03 µM) of 62.8%, a viability, T/C (second compound 1 µM, first compound 0.0949 µM) of 49.7% and a viability, T/C (second compound 1 µM, first compound 0.3 µM) of 38.3%.
For CC(C)n1nc(-c2ccc3oc(N)nc3c2)c2c(N)ncnc21, the viability, T/C (compound 0.000316 µM) was 105% [middle of 4 runs], the viability, T/C (compound 0.00316 µM) was 98.2% [middle of 4 runs] and the viability, T/C (compound 0.0316 µM) was 41.3% [middle of 4 runs]. The viability, T/C (compound 0.1 µM) was 15.5% and 26.6% (2×) and 20% and the IC50 (curve of compound) was 25.1 nM [middle of 4 runs].
Compound CCN1CCN(Cc2ccc(Nc3ncc(F)c(-c4cc(F)c5nc(C)n(C(C)C)c5c4)n3)nc2)CC1 + C=CC(=O)N1CCN(c2nc(OCC3CCCN3C)nc3c(F)c(-c4nc(N)cc(C)c4C(F)(F)F)c(Cl)cc23)C(C)C1 has an IC50 [1] of 0.945 µM, an IC50 [2] of 0.545 µM and an IC50 [3] of 0.691 µM. It also gave an IC50 [4] of 0.614 µM, an IC50 [5] of 0.597 µM and an IC50 [6] of 0.696 µM. It also gave a viability, T/C (second compound 0.00316 µM, first compound 0.00316 µM) of 95.9%, a viability, T/C (second compound 0.00316 µM, first compound 0.01 µM) of 103% and a viability, T/C (second compound 0.00316 µM, first compound 0.0316 µM) of 97.2%. For the same compound, the viability, T/C (second compound 0.00316 µM, first compound 0.1 µM) was 91.3%, the viability, T/C (second compound 0.00316 µM, first compound 0.316 µM) was 83.5% and the viability, T/C (second compound 0.00316 µM, first compound 1 µM) was 47.8%. It also gave a viability, T/C (second compound 0.01 µM, first compound 0.00316 µM) of 88.3%, a viability, T/C (second compound 0.01 µM, first compound 0.01 µM) of 89.8% and a viability, T/C (second compound 0.01 µM, first compound 0.0316 µM) of 85.2%. It also gave a viability, T/C (second compound 0.01 µM, first compound 0.1 µM) of 95.4%, a viability, T/C (second compound 0.01 µM, first compound 0.316 µM) of 65.2% and a viability, T/C (second compound 0.01 µM, first compound 1 µM) of 33.2%. It also gave a viability, T/C (second compound 0.0316 µM, first compound 0.00316 µM) of 96.4%, a viability, T/C (second compound 0.0316 µM, first compound 0.01 µM) of 90.4% and a viability, T/C (second compound 0.0316 µM, first compound 0.0316 µM) of 76.5%. It also gave a viability, T/C (second compound 0.0316 µM, first compound 0.1 µM) of 76.7%, a viability, T/C (second compound 0.0316 µM, first compound 0.316 µM) of 75.8% and a viability, T/C (second compound 0.0316 µM, first compound 1 µM) of 39.2%. The viability, T/C (second compound 0.1 µM, first compound 0.00316 µM) was 92.2%, the viability, T/C (second compound 0.1 µM, first compound 0.01 µM) was 84.5% and the viability, T/C (second compound 0.1 µM, first compound 0.0316 µM) was 83.3%. For the same compound, the viability, T/C (second compound 0.1 µM, first compound 0.1 µM) was 72.4%, the viability, T/C (second compound 0.1 µM, first compound 0.316 µM) was 65.8% and the viability, T/C (second compound 0.1 µM, first compound 1 µM) was 39.6%. The viability, T/C (second compound 0.316 µM, first compound 0.00316 µM) was 95.2%, the viability, T/C (second compound 0.316 µM, first compound 0.01 µM) was 86.5% and the viability, T/C (second compound 0.316 µM, first compound 0.0316 µM) was 79.9%. For the same compound, the viability, T/C (second compound 0.316 µM, first compound 0.1 µM) was 77.9%, the viability, T/C (second compound 0.316 µM, first compound 0.316 µM) was 78.6% and the viability, T/C (second compound 0.316 µM, first compound 1 µM) was 30.1%. It also gave a viability, T/C (second compound 1 µM, first compound 0.00316 µM) of 85%, a viability, T/C (second compound 1 µM, first compound 0.01 µM) of 77.2% and a viability, T/C (second compound 1 µM, first compound 0.0316 µM) of 88.1%. The viability, T/C (second compound 1 µM, first compound 0.1 µM) was 81.1%, the viability, T/C (second compound 1 µM, first compound 0.316 µM) was 74.1% and the viability, T/C (second compound 1 µM, first compound 1 µM) was 38.9%.
